This data set is described as follows: physchem. The gist of the method: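 3 mg of peptide treated with 100 μL portions of 200 mM phosphate buffer pH 7.4, sonicating/vortexing up to 1 min, with further buffer added until fully dissolved. Solubility then quantified by HPLC.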
[1] abbreviates: pH 7.4, aqueous buffer, pH 7.4 Phosphate Buffer - Solubility, 200 mM Phosphate buffer pH 7.4.

SMILES strings stand for the structures. Starred links: 1 amine or outer side, 2 acyl side, 3 side chain; linkers in the order of their positions; H or OH if unused. Positions of bridges follow the written chain, without caps; N, C: chain ends. Non-standard residues stand in square brackets, D forms with d. Residues, ends and D or L forms follow the SMILES beside them. Groups on a side chain read outwards from the residue. Chains are numbered I, II in the order given. *: point of attachment. C18 diacid = O=C(O)CCCCCCCCCCCCCCCCC(=O)*; C17 diacid = O=C(O)CCCCCCCCCCCCCCCC(=O)*; γGlu = O=C(O)[C@H](CCC(=O)[*:2])N[*:1]; NMeY = CN[C@@H](Cc1ccc(O)cc1)C(=O)O; AEEA = NCCOCCOCC(=O)O; Aib = CC(C)(N)C(=O)O

Regarding `CC[C@H](C)[C@H](NC(=O)[C@H](CO)NC(=O)[C@H](Cc1ccc(O)cc1)NC(=O)[C@H](CC(=O)O)NC(=O)[C@H](CO)NC(=O)[C@@H](NC(=O)[C@H](Cc1ccccc1)NC(=O)[C@@H](NC(=O)CNC(=O)[C@H](CCC(=O)O)NC(=O)C(C)(C)NC(=O)[C@H](Cc1ccc(O)cc1)NC)[C@@H](C)O)[C@@H](C)CC)C(=O)N[C@@H](C)C(=O)N[C@@H](CCCCNC(=O)COCCOCCNC(=O)COCCOCCNC(=O)CC[C@H](NC(=O)CCCCCCCCCCCCCCCC(=O)O)C(=O)O)C(=O)N[C@@H](CC(=O)O)C(=O)N[C@@H](CCCNC(=N)N)C(=O)NC(C)(C)C(=O)N[C@@H](C)C(=O)N[C@@H](CCC(N)=O)C(=O)NC(C)(C)C(=O)N[C@@H](CC(N)=O)C(=O)N[C@@H](Cc1ccccc1)C(=O)N[C@H](C(=O)N[C@@H](CC(N)=O)C(=O)N[C@@H](Cc1c[nH]c2ccccc12)C(=O)N[C@@H](CC(C)C)C(=O)N[C@@H](CC(C)C)C(=O)N[C@@H](C)C(=O)N[C@@H](CCC(N)=O)C(=O)N[C@@H](CO)C(=O)O)C(C)C` [Compound 10] (H-[NMeY][Aib]EGTFISDYSIAK([AEEA-AEEA-γGlu-C17 diacid])DR[Aib]AQ[Aib]NFVNWLLAQS-OH), the solubility was no less than 15 mg/mL (pH 7.4) and no less than 30 mg/mL (pH 7.4, aqueous buffer).

As to `CC[C@H](C)[C@H](NC(=O)[C@H](CO)NC(=O)[C@H](Cc1ccc(O)cc1)NC(=O)[C@H](CC(=O)O)NC(=O)[C@H](CO)NC(=O)[C@@H](NC(=O)[C@H](Cc1ccccc1)NC(=O)[C@@H](NC(=O)CNC(=O)[C@H](CCC(=O)O)NC(=O)C(C)(C)NC(=O)[C@H](Cc1ccc(O)cc1)NC)[C@@H](C)O)[C@@H](C)CC)C(=O)N[C@@H](C)C(=O)N[C@@H](CC(C)C)C(=O)N[C@@H](CC(=O)O)C(=O)N[C@@H](CCCNC(=N)N)C(=O)NC(C)(C)C(=O)N[C@@H](CCCCNC(=O)CNC(=O)CNC(=O)[C@@H]1CCCN1C(=O)[C@H](C)NC(=O)[C@@H]1CCCN1C(=O)[C@H](C)NC(=O)[C@@H]1CCCN1C(=O)CC[C@H](NC(=O)CCCCCCCCCCCCCCCCC(=O)O)C(=O)O)C(=O)N[C@@H](CCC(N)=O)C(=O)NC(C)(C)C(=O)N[C@@H](CC(=O)O)C(=O)N[C@@H](Cc1ccccc1)C(=O)N[C@H](C(=O)N[C@@H](CC(N)=O)C(=O)N[C@@H](Cc1c[nH]c2ccccc12)C(=O)N[C@@H](CC(C)C)C(=O)N[C@@H](CC(C)C)C(=O)N[C@@H](C)C(=O)N[C@@H](CCC(N)=O)C(=O)N[C@@H](CO)C(=O)N1CCC[C@H]1C(=O)NCC(=O)O)C(C)C` [Compound 136] (I: H-[NMeY][Aib]EGTFISDYSIALDR[Aib]KQ[Aib]DFVNWLLAQSPG-OH / II: {C18 diacid-γGlu}-PAPAPGG; amide I:18-II:C), the solubility by setting is: (pH 7.4) no less than 15 mg/mL; (pH 7.4, aqueous buffer) no less than 30 mg/mL.

`CC[C@H](C)[C@H](NC(=O)[C@H](Cc1ccccc1)NC(=O)[C@@H](NC(=O)CNC(=O)[C@H](CCC(=O)O)NC(=O)C(C)(C)NC(=O)[C@H](Cc1ccc(O)cc1)NC)[C@@H](C)O)C(=O)N[C@@H](CO)C(=O)N[C@@H](CC(=O)O)C(=O)N[C@@H](Cc1ccc(O)cc1)C(=O)N[C@@H](CO)C(=O)N[C@H](C(=O)NC(C)(C)C(=O)N[C@@H](CCCCNC(=O)COCCOCCNC(=O)COCCOCCNC(=O)CC[C@H](NC(=O)CC[C@H](NC(=O)CCCCCCCCCCCCCCCC(=O)O)C(=O)O)C(=O)O)C(=O)N[C@@H](CC(=O)O)C(=O)N[C@@H](CCCNC(=N)N)C(=O)NC(C)(C)C(=O)N[C@@H](C)C(=O)N[C@@H](CCC(N)=O)C(=O)NC(C)(C)C(=O)N[C@@H](CC(N)=O)C(=O)N[C@@H](Cc1ccccc1)C(=O)N[C@H](C(=O)N[C@@H](CC(N)=O)C(=O)N[C@@H](Cc1c[nH]c2ccccc12)C(=O)N[C@@H](CC(C)C)C(=O)N[C@@H](CC(C)C)C(=O)N[C@@H](C)C(=O)N[C@@H](CCC(N)=O)C(=O)N[C@@H](CCCNC(=N)N)C(=O)N1CCC[C@H]1C(=O)N[C@@H](CO)C(=O)N[C@@H](CO)C(=O)NCC(=O)N[C@@H](C)C(=O)N1CCC[C@H]1C(=O)N1CCC[C@H]1C(=O)N1CCC[C@H]1C(=O)N[C@@H](CO)C(N)=O)C(C)C)[C@@H](C)CC` [Compound 14] (H-[NMeY][Aib]EGTFISDYSI[Aib]K([AEEA-AEEA-γGlu-γGlu-C17 diacid])DR[Aib]AQ[Aib]NFVNWLLAQRPSSGAPPPS-NH2) yielded a solubility under setting [1] of no less than 30 mg/mL and a solubility (pH 7.4, solubility in phosphate buffer at pH 7.4, 200 mM phosphate buffer pH 7.4) of no less than 15 mg/mL.

`CC[C@H](C)[C@H](NC(=O)[C@H](CO)NC(=O)[C@H](Cc1ccc(O)cc1)NC(=O)[C@H](CC(=O)O)NC(=O)[C@H](CO)NC(=O)[C@@H](NC(=O)[C@H](Cc1ccccc1)NC(=O)[C@@H](NC(=O)CNC(=O)[C@H](CCC(=O)O)NC(=O)C(C)(C)NC(=O)[C@H](Cc1ccc(O)cc1)NC)[C@@H](C)O)[C@@H](C)CC)C(=O)N[C@@H](C)C(=O)N[C@@H](CCCCNC(=O)COCCOCCNC(=O)COCCOCCNC(=O)CC[C@H](NC(=O)CCCCCCCCCCCCCCCCC(=O)O)C(=O)O)C(=O)N[C@@H](CC(=O)O)C(=O)N[C@@H](CCCNC(=N)N)C(=O)NC(C)(C)C(=O)N[C@@H](C)C(=O)N[C@@H](CCC(N)=O)C(=O)NC(C)(C)C(=O)N[C@@H](CC(N)=O)C(=O)N[C@@H](Cc1ccccc1)C(=O)N[C@H](C(=O)N[C@@H](CC(N)=O)C(=O)N[C@@H](Cc1c[nH]c2ccccc12)C(=O)N[C@@H](CC(C)C)C(=O)N[C@@H](CC(C)C)C(=O)N[C@@H](C)C(=O)N[C@@H](CCC(N)=O)C(=O)N[C@@H](CCCNC(=N)N)C(N)=O)C(C)C` [Compound 254] (H-[NMeY][Aib]EGTFISDYSIAK([AEEA-AEEA-γGlu-C18 diacid])DR[Aib]AQ[Aib]NFVNWLLAQR-NH2) had a solubility (pH 7.4, aqueous buffer) of no less than 7.2 mg/mL.

The compound `CC[C@H](C)[C@H](NC(=O)[C@H](CO)NC(=O)[C@H](Cc1ccc(O)cc1)NC(=O)[C@H](CC(=O)O)NC(=O)[C@H](CO)NC(=O)[C@@H](NC(=O)[C@H](Cc1ccccc1)NC(=O)[C@@H](NC(=O)CNC(=O)[C@H](CCC(=O)O)NC(=O)C(C)(C)NC(=O)[C@H](Cc1ccc(O)cc1)NC)[C@@H](C)O)[C@@H](C)CC)C(=O)N[C@@H](C)C(=O)N[C@@H](CC(C)C)C(=O)N[C@@H](CCCCN)C(=O)N[C@@H](CCCNC(=N)N)C(=O)N[C@@H](CCCCNC(=O)CNC(=O)CNC(=O)CNC(=O)CNC(=O)CNC(=O)CNC(=O)CCCCCCCCCCCCCCCCC(=O)O)C(=O)N[C@@H](Cc1c[nH]cn1)C(=O)N[C@@H](CCC(N)=O)C(=O)NC(C)(C)C(=O)N[C@@H](CC(N)=O)C(=O)N[C@@H](Cc1ccccc1)C(=O)N[C@H](C(=O)N[C@@H](CC(N)=O)C(=O)N[C@@H](Cc1c[nH]c2ccccc12)C(=O)N[C@@H](CC(C)C)C(=O)N[C@@H](CC(C)C)C(=O)N[C@@H](C)C(=O)N[C@@H](CCC(N)=O)C(=O)N[C@@H](CCCNC(=N)N)C(=O)N1CCC[C@H]1C(=O)N[C@@H](CO)C(=O)N[C@@H](CO)C(=O)NCC(=O)N[C@@H](C)C(=O)N1CCC[C@H]1C(=O)N1CCC[C@H]1C(=O)N1CCC[C@H]1C(=O)N[C@@H](CO)C(=O)N[C@@H](CCCNC(=N)N)C(N)=O)C(C)C` [Compound 280] displayed a solubility under setting [1] of less than 15 mg/mL.

In general, solubility refers to how much of the substance goes into solution per volume.
